How the values were obtained:
[1] = biological target: T1, Tyrosine-protein kinase JAK2 (Homo sapiens, UniProt O60674)
[2] = biological target: T1, Tyrosine-protein kinase JAK2; remark: listed apart in the source
[3] = biological target: T1, Tyrosine-protein kinase JAK2; format: cell-based, Blood, CD34+ cell
[4] = biological target: T2, Tyrosine-protein kinase JAK3 (Mus musculus, UniProt Q62137); format: cell-based
T2 sequence (Q62137 whole entry): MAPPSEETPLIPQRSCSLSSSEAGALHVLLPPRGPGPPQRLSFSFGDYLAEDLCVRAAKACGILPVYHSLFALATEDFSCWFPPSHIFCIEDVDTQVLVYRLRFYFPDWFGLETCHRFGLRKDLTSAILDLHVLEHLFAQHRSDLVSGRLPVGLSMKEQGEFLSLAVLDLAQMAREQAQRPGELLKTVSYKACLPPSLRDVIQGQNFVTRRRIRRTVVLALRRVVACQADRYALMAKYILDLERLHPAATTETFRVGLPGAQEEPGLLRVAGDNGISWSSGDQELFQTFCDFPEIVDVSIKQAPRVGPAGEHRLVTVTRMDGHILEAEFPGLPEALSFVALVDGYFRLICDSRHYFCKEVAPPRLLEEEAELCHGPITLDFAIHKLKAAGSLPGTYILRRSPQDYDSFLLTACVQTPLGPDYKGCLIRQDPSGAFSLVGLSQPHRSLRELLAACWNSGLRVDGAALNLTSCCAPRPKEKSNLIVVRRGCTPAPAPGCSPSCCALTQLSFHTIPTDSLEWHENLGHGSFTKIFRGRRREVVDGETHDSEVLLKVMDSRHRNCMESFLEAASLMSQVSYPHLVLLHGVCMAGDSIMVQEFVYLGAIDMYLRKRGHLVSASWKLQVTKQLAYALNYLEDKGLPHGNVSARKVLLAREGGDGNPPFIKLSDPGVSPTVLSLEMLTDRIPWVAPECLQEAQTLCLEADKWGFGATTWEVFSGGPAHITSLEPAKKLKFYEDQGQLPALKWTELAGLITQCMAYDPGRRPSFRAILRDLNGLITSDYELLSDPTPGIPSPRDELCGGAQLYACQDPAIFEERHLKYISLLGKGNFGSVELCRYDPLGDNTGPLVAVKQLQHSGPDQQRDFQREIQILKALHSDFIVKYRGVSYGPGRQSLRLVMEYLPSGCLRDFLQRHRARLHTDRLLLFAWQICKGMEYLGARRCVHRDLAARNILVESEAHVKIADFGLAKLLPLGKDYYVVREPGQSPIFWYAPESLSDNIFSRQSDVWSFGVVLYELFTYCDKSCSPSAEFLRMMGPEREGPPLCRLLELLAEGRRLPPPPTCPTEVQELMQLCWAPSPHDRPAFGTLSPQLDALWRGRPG

[5] = biological target: T3, Tyrosine-protein kinase JAK1 (Homo sapiens, UniProt P23458); format: cell-based
T3 sequence (P23458 whole entry): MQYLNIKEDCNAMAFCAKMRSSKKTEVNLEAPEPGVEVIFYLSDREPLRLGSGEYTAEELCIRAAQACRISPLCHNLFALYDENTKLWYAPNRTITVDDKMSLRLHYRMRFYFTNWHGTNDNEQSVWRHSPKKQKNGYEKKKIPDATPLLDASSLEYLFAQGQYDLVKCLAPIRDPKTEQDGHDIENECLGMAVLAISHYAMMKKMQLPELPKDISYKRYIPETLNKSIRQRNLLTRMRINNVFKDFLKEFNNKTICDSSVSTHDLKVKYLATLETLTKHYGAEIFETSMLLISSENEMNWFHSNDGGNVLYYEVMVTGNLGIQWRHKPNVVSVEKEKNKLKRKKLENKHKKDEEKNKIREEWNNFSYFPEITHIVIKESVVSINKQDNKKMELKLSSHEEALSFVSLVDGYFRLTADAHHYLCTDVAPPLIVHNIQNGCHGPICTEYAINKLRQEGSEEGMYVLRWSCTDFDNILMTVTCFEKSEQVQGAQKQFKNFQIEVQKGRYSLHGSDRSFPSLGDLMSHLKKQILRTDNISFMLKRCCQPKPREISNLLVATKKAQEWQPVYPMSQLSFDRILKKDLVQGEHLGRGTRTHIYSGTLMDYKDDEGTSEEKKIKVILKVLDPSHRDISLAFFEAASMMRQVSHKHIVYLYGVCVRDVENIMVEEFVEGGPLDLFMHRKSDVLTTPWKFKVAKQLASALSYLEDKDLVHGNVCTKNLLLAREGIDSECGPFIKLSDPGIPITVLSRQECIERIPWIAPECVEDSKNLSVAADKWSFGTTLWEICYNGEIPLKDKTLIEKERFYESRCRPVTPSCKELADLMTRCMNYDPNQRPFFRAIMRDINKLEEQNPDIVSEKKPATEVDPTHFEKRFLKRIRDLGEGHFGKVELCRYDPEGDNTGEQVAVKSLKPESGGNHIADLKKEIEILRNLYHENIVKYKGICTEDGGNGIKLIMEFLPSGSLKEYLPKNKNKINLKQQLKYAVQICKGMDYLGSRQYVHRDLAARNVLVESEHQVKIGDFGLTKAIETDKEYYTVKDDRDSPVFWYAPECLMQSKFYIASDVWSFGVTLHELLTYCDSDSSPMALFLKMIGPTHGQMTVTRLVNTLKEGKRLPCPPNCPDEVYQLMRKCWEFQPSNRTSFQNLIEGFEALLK

[6] = biological target: T3, Tyrosine-protein kinase JAK1

T1 sequence (O60674 whole entry): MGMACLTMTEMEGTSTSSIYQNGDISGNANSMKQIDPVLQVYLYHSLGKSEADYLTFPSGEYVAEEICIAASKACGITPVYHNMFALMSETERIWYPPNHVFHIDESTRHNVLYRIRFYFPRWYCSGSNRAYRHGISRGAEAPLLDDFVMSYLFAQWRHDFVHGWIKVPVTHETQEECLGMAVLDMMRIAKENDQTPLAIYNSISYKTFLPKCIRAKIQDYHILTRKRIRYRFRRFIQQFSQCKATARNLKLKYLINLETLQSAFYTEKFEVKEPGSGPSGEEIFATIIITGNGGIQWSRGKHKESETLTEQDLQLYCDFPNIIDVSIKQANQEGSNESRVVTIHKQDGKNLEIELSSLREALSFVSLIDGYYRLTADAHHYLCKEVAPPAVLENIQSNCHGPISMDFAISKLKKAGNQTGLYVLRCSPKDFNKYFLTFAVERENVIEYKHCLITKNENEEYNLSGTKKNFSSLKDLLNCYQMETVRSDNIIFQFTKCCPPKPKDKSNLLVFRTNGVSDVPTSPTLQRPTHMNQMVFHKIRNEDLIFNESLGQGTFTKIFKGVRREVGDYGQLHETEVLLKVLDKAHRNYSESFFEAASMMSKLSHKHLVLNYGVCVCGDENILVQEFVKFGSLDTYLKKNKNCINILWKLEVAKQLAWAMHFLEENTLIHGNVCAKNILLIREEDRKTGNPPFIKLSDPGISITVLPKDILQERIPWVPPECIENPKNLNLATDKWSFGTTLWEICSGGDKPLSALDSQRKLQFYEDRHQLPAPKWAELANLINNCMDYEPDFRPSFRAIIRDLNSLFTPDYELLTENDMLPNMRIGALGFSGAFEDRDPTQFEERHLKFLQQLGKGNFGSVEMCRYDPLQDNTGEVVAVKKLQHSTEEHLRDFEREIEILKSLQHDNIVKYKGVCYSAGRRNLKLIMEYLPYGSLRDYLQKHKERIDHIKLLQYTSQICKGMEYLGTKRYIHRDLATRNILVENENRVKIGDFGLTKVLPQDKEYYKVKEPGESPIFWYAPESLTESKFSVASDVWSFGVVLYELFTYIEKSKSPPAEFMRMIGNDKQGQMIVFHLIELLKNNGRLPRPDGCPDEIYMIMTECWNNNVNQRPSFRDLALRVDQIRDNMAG

## CC[C@@](C)(Nc1ccnc(-c2c[nH]c3ncccc23)n1)C(=O)NCC(F)(F)F [DECERNOTINIB]
[1]
  IC50: 619 nM
  Ki: 13 nM
[2]
  IC50: 24 nM
[3]
  IC50: > 10000 nM
[4]
  IC50: 50 nM
[5]
  IC50: 50 nM
[6]
  IC50: 13.2 nM

Source: ChEMBL document CHEMBL3297690, “Discovery and development of Janus kinase (JAK) inhibitors for inflammatory diseases” (J Med Chem, 2014)
